The target of data set [1] is T1, clipsin (Rattus norvegicus, UniProt P09650).
T1 sequence (P09650 21-260): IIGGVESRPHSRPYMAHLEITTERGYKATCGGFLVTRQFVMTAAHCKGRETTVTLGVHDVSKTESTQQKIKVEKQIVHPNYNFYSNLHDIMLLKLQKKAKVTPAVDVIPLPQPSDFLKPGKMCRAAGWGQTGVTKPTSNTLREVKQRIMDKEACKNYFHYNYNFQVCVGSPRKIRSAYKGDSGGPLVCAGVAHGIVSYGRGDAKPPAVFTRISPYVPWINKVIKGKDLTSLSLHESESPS
Put plainly: Enzymography: clipsin activity in 125I-gelatin-containing polyacrylamide gels. The format is biochemical. Also on record: Mr 25,000 band in gelatin enzymography. The following applies: for Inhibition of clipsin by peptide boronic acids (in words): 10 μM final concentrations.

Data set [2] has as its target T2, bovine chymotrypsin (Bos taurus, UniProt P00766).
T2 construct: mature chains cut from chymotrypsinogen A
Put plainly: Hydrolysis kinetics of tetrapeptide p-nitroanilide substrates by chymotrypsin. The format is biochemical. The following applies: ratio chymotrypsin/clipsin for the same substrate. The source says:
(§1) Correlation coefficients were greater than 0.99.

In data set [3] the target is T3, human leukocyte cathepsin G (Homo sapiens, UniProt P08311).
T3 sequence (P08311 21-244): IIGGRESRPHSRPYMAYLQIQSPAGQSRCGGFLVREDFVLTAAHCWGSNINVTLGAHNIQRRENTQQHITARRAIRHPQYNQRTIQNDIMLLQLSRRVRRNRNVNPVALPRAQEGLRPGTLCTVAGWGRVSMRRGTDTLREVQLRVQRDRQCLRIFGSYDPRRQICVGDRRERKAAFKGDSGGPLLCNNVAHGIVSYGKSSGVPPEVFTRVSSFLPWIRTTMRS
Put plainly: Hydrolysis kinetics of tetrapeptide p-nitroanilide substrates by cathepsin G. The format is biochemical. Conditions: pH 7.5, 50° C.; for Km: 10% dimethyl sulfoxide; for kcat: α-1-AChy-titrated enzyme concentration.
Source text: as §1

A further data set has as its system β-APP. The data set is described as follows: β-APP degradation in rat cortical membranes by Mg2+ extract, Western blot with antiserum 385. The following applies: inhibitor included in the incubation. The class given is biochemical. The procedure:
(§2) Mg^2+ extract at 60% (about 4.2 nM clipsin final) was incubated with a crude membrane fraction from adult rat cortex (2.8 mg/mL protein final; Siman et al., (1989) J. Neurosci. 9, 1579-1590). Proteolysis reactions were performed at 37° C. for 1 h before quenching the reactions with sodium dodecyl sulfate-containing electrophoresis sample buffer and heating the samples to 90° C. for 5 min. Overall breakdown of proteins were determined by Coomassie Blue staining of gels, whereas β-APP degradation was assessed by Western blotting of identical gels. β-APP was visualized as 110-130-kDa bands using antiserum 385 as described previously (Siman et al., (1989) Neuron 3, 275-285). β-APP-immunostained polypeptides on Western blots and the corresponding major Coomassie Blue-stained protein bands on sodium dodecyl sulfate-containing polyacrylamide gels were quantified by scanning laser densitometry.

Data set [4] relates to major Coomassie Blue-detectable proteins from rat cortical membranes. The data set is described as follows: Breakdown of rat cortical membrane proteins by Mg2+ extract, Coomassie Blue-stained gels. The format is biochemical. Conditions: inhibitor included in the incubation. The procedure: as §2
We began looking for potential endogenous substrates of clipsin by incubating rat cortical membranes with Mg^2+ extract and measuring loss of the major protein bands following separation of the incubated samples by polyacrylamide gel electrophoresis. […] No other bands varied more than 25%, and no protease activity endogenous to cortical membranes could be detected when comparing 37° C. incubated membranes with parallel samples kept on ice.

Data set [5] has as its target T1, clipsin. The data set is described as follows: In vitro chromogenic substrate assay: inhibition of Suc-Ala-Ala-Pro-Phe-p-nitroanilide hydrolysis by Mg2+ extract. The class given is biochemical. The arrangement: Forebrains from 5-day-old rats were stripped of meninges and homogenized; from tissue; host or cells: forebrain of 5-day-old rats, membrane-associated, 1M MgCl2 extract (partially enriched). The following applies: for remaining activity at 10 µM: read-out: Relative Clipsin Activity (ΔOD as a percentage of the control value).

The subject of data set [6] is T4, C[C@H](NC(=O)CCC(=O)O)C(=O)N[C@@H](C)C(=O)N1CCC[C@H]1C(=O)N[C@@H](Cc1ccccc1)C(=O)Nc1ccc([N+](=O)[O-])cc1.
T4 construct: mature chains cut from chymotrypsinogen A
Put plainly: Hydrolysis kinetics of tetrapeptide p-nitroanilide substrates by chymotrypsin. The format is biochemical, bovine. Conditions: other: chymotrypsin, pH 7.5, 50° C., 10% dimethyl sulfoxide.
Source text: as §1

For data set [7], the system named is T5, COC(=O)CCC(=O)N[C@@H](C)C(=O)N[C@@H](C)C(=O)N1CCC[C@H]1C(=O)N[C@@H](CCSC)C(=O)Nc1ccc([N+](=O)[O-])cc1.
T5 construct: mature chains cut from chymotrypsinogen A
The data set is described as above. The format is biochemical, bovine. The following applies: other: chymotrypsin, pH 7.5, 50° C., 10% dimethyl sulfoxide.
Source text: as §1

A further data set relates to human cathepsin G. The following applies: cited from earlier work.
Data set [8] has as its target T2, bovine chymotrypsin. Conditions: cited from earlier work.
Data set [9] deals with T1, clipsin. Put plainly: Association rate constant for α-1-AChy binding to clipsin, second-order conditions. Also on record: Mr 25,000 band in gelatin enzymography. The following applies: equimolar clipsin and α-1-AChy. The method, then:
The association rate constant for α-1-AChy binding to clipsin was determined under second-order conditions as described previously for α-1-AChy binding to other chymotrypsin-like proteases (Beatty et al., (1980) J. Biol. Chem. 255, 3931-3934). Using the titrated concentration of clipsin, an equimolar concentration of α-1-AChy was preincubated with Mg^2+ extract for various periods of time before addition of 2 mM substrate which stopped the reaction and was used to measure residual enzyme activity. The half-life time of reaction (t1/2) was calculated from a plot of .nu.^-1 versus t, and in turn used to calculate the association rate constant ^k assoc through the following: kassoc =1/t1/2 [Eγ], where [Eγ] stands for the total enzyme concentration (Beatty et al., (1980) J. Biol. Chem. 255, 3931-3934).
Using the titrated value for clipsin concentration in the Mg^2+ extract, we combined equimolar concentrations of clipsin and α-1-AChy to determine the association rate constant between these two proteins, as described previously (Equation 4 in Beatty et al., (1980) J. Biol. Chem. 255, 3931-3934). The ^k assoc was determined to be 2.9×10^6 M^-1 s^-1, a value falling between those determined previously for chymotrypsin and cathepsin G (Beatty et al., (1980) J. Biol. Chem. 255, 3931-3934).

Data set [10] deals with T1, clipsin. Put plainly: Titration of clipsin activity in Mg2+ extract with α-1-AChy in vitro. The class given is biochemical. The arrangement: Mr 25,000 band in gelatin enzymography. The following applies: 20% Mg2+ extract.
Where [11] appears, read: inhibitor 10 μM, 20% Mg2+ extract (1.4 nM clipsin), 2 mM Suc-Ala-Ala-Pro-Phe-p-nitroanilide, 1 h, 37° C., average of three.

Where two headings read alike, the source gives them in different places. Starred links: 1 amine or outer side, 2 acyl side, 3 side chain; linkers in the order of their positions; H or OH if unused. Residues, ends and D or L forms follow the SMILES beside them. *: point of attachment. pNA = O=[N+]([O-])c1ccc(N*)cc1; Suc = O=C(CCC(=O)[*:2])[*:1]; MeOSuc = COC(=O)CCC(=O)*

In the case of `c1cnc2c(c1)ccc1cccnc12` [1,10-0-phenanthroline], the “Inhibition of clipsin activity by class-specific protease inhibitors (in words)” value at clipsin [1] (enzymography, 1 mM EDTA present) is recorded as “Lack of complete inhibition”.
In the case of `CCN1C(=O)C=CC1=O` [N-ethylmaleimide], the “Inhibition of clipsin activity by class-specific protease inhibitors (in words)” value on clipsin [1] is “not inhibited”.
What is called Km is the substrate concentration at which the rate is half of its maximum. In general, kcat refers to the maximal rate divided by the concentration of active sites. For the molecule `COC(=O)CCC(=O)N[C@@H](C)C(=O)N[C@@H](C)C(=O)N1CCC[C@H]1C(=O)N[C@@H](CCSC)C(=O)Nc1ccc([N+](=O)[O-])cc1` [R'--Met-p-nitroanilide] (MeOSuc-AAPM-pNA), the “kcat /Km of chymotrypsin relative to clipsin” value at bovine chymotrypsin [2] was determined as 8.5 fold. In data set [3], the “kcat /Km” value is on record as 4,300 M^-1 S^-1, the Km is 540 µM and the kcat was determined as 2.3 s⁻¹.
For the molecule `C[C@H](NC(=O)CCC(=O)O)C(=O)N[C@@H](C)C(=O)N1CCC[C@H]1C(=O)N[C@@H](Cc1ccccc1)C(=O)Nc1ccc([N+](=O)[O-])cc1` [R--Phe-p-nitroanilide, Suc-Ala-Ala-Pro-Phe-p-nitroanilide] (Suc-AAPF-pNA), on bovine chymotrypsin [2], the “kcat /Km of chymotrypsin relative to clipsin” value worked out at 16 fold. Besides, in data set [3], the “kcat /Km” value is on record as 4,800 M^-1 S^-1, the Km turned out to be 3300 µM and the kcat was 16 s⁻¹.
In the case of `COC(=O)CCC(=O)N[C@@H](C)C(=O)N[C@@H](C)C(=O)N1CCC[C@H]1C(=O)N[C@@H](Cc1ccccc1)B(O)O` [Sample 2, MeO-Suc-Ala-Ala-Pro-boro-Phe-OH], in the data set with β-APP, the “Blocking of the clipsin-induced loss of β-APP immunoreactivity (in words)” value was “specifically blocked”. Moreover, the “Blocking of the clipsin-induced decrease of the protein doublet (in words)” value in data set [4] was “could be blocked”. Besides, the “Inhibition of clipsin by peptide boronic acids (in words)” value at clipsin [1] (enzymography) is listed as “preferentially inhibited”. Also, the remaining activity at 10 µM on clipsin [5] (setting [11]) turned out to be 8%.
For `COC(=O)CCC(=O)N[C@@H](C)C(=O)N[C@@H](C)C(=O)N1CCC[C@H]1C(=O)N[C@@H](C)B(O)O` [Sample 3, MeO-Suc-Ala-Ala-Pro-boro-Ala-OH], the “Inhibition of clipsin by peptide boronic acids (in words)” value on clipsin [1] (enzymography) is “lack of inhibition”. The remaining activity at 10 µM at clipsin [5] (setting [11]) is 97%.
Regarding `COC(=O)CCC(=O)N[C@@H](C)C(=O)N[C@@H](C)C(=O)N1CCC[C@H]1C(=O)N[C@H](B(O)O)C(C)C` [Sample 4, MeO-Suc-Ala-Ala-Pro-boro-Val-OH], the “Inhibition of clipsin by peptide boronic acids (in words)” value at clipsin [1] (enzymography) was “lack of inhibition”. Further, at clipsin [5] (setting [11]), the remaining activity at 10 µM was found to be 94%.
As for `O=C(O)CI` [iodoacetic acid], on clipsin [1], the “Inhibition of clipsin activity by class-specific protease inhibitors (in words)” value was “not inhibited”.
Regarding `O=S(=O)(F)Cc1ccccc1` [phenylmethylsulfonyl fluoride], the “Inhibition of clipsin activity by class-specific protease inhibitors (in words)” value at clipsin [1] is on record as “inhibited clipsin activity”.
On to Bz-Pro-Phe-boro-Arg-OH [Sample 5], for which, at clipsin [1] (enzymography), the “Inhibition of clipsin by peptide boronic acids (in words)” value is “only marginally”. The “Relative Clipsin Activity (ΔOD as a percentage of the control value)” value at clipsin [5] (setting [11]) stood at 84%.
Turning to bovine chymotrypsin (Bos taurus), in data set [6], the Km came out at 130 µM, the turnover number (kcat) was 120 s⁻¹ and the kcat/Km was 910,000 M^-1 S^-1. Besides, in [7], the Michaelis-Menten constant (Km) was determined as 1800 µM, the kcat was 80 s⁻¹ and the kcat/Km is 44,000 M^-1 S^-1.

B1: α-1-antichymotrypsin (protein, UniProt P01011 24-423, looked up)
Alpha-1-antichymotrypsin: HPNSPLDEENLTQENQDRGTHVDLGLASANVDFAFSLYKQLVLKAPDKNVIFSPLSISTALAFLSLGAHNTTLTEILKGLKFNLTETSEAEIHQSFQHLLRTLNQSSDELQLSMGNAMFVKEQLSLLDRFTEDAKRLYGSEAFATDFQDSAAAKKLINDYVKNGTRGKITDLIKDLDSQTMMVLVNYIFFKAKWEMPFDPQDTHQSRFYLSKKKWVMVPMMSLHHLTIPYFRDEELSCTVVELKYTGNASALFILPDQDKMEEVEAMLLPETLKRWRDSLEFREIGELYLPKFSISRDYNLNDILLQLGIEEAFTSKADLSGITGARNLAVSQVVHKAVLDVFEEGTEASAATAVKITLLSALVETRTIVRFNRPFLMIIVPTDTQNIFFMSKVTNPKQA
With B1, the “kassoc reported for α-1-AChy binding to human cathepsin G” value in the data set on human cathepsin G is 5.1e+07 M⁻¹ s⁻¹. In addition, in the data set with clipsin [5] (pilot experiments, […]), the “Inhibition of clipsin activity in vitro (in words)” value is reported as “effective inhibitor”. Further, the “kassoc reported for α-1-AChy binding to bovine chymotrypsin” value with bovine chymotrypsin [8] is 60000 M⁻¹ s⁻¹. Besides, the “kassoc, association rate constant of α-1-AChy with clipsin” value in the data set with clipsin [9] came out at 2.9e+06 M⁻¹ s⁻¹. Further, the “α-1-AChy concentration producing rapid inhibition of clipsin activity” value with clipsin [10] is given as not below 3.5 nM. In the data set with clipsin [10] (titration curve at 120 min preincubation), the “α-1-AChy necessary to inhibit 100% clipsin activity (titration point)” value was 1.4 nM.

The record behind these values is patent publication US5252463A, “Clipsin, a chymotrypsin-like protease and method of using same” (The Du Pont Merck Pharmaceutical Company, priority 1990, dated 1993).
